Results reported in patent US20210077559A1, “Treating Autoimmune Disorders with Acetylcholinesterase Inhibitors” (priority 2018, published 2021).

Legend:
Demodex mites [1] = assay: In vitro Demodex survival time assay; details: in vitro assay (FIG. 3 and 4)
Protocol: FIG. 4 summarizes the activity of 10% chloroquine in water relative to a water control on activity against Demodex mites in an in vitro assay, with an LT50 of 31.6 hours for chloroquine compared to 44.8 hours for the water control, illustrating the inactivation effect of chloroquine on Demodex.
Example 4: In vitro efficacy and mite lifetimes: Relative efficacy of various formulations are evaluated with a Demodex survival time experiments. FIG. 3 tabulates Demodex survival time, expressed in terms of LT50 (time at which 50% of Demodex mites are killed) and/or average minutes to death for various active agents.

Demodex mites [2] = details: dichlorvos 1%, one patient; PCT Pub. No. WO 2015/017328; cited from earlier work

Row | Structure (SMILES) | activity against Demodex mites (Demodex mites [1]) | remission of Papulopostular Rosacea (PPR) (Demodex mites [2])
1 | CCN(CC)CCCC(C)Nc1ccnc2cc(Cl)ccc12 (centres unmarked) [chloroquine] | has activity against Demodex mites | 
2 | COP(=O)(OC)OC=C(Cl)Cl [dichlorvos] |  | complete and continued remission
